Reference: ChEMBL document CHEMBL1141430, “Alkaloids with human delta-opioid receptor binding affinity from the Australian rainforest tree Peripentadenia mearsii” (J Nat Prod, 2007)
Active and inactive are the calls of the source. No cut-off for these calls is given here.

What was measured:
[1] = biological target: T1, Delta-type opioid receptor (Homo sapiens, UniProt P41143); experiment: Displacement of [125I]deltorphin 2 from human recombinant delta opioid receptor expressed in HEK cells at 100 uM; assay type: cell-based; settings: HEK293
[2] = biological target: T1, Delta-type opioid receptor; experiment: biochemical

T1 sequence (P41143 whole entry): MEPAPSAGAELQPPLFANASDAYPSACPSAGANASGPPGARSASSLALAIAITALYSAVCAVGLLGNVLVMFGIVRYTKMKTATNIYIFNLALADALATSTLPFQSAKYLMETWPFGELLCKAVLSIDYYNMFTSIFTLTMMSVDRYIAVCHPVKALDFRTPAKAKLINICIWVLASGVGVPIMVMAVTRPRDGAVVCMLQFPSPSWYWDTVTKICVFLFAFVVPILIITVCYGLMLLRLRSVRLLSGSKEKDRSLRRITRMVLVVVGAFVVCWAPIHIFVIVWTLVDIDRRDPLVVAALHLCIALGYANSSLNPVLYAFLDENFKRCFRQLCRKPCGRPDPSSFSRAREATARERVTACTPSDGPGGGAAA

| Activity [1] | IC50 [2] [µM] | SMILES |
| --- | --- | --- |
| inactive | – | CCCCCC(=O)NCCC[N+]12CCC[C@@H]1CC1=C(C(=O)CC(C)O1)[C@H]2C (stereo partly drawn) |
| – | 11.4 | CCCCCC(=O)NCCCN1CCCC1CC(=O)c1c(C)cccc1O (stereo not drawn) [PERIPENTADENINE] |
| – | 30.9 | CCCCCC(=O)NCCCN1CCC[C@H]1CC(=O)O [PERIPENTONINE C] |
